Test results published in US12377095B2, “Use of ligustrazine nitrone derivatives in treatment and prevention of diabetic complication diseases” (QINGDAO HAILAN PHARMACEUTICALS CO., LTD., priority 2019, dated 2025).

Key:
[1] = tested on: diabetic neuropathy model rats; assay: Thermal radiation stimulation in diabetic neuropathy model rats; format: in vivo, rat; conditions: TBN 30 mg/kg twice a day, 4 weeks of administration (8 weeks after STZ), P<0.05
Procedure: Modeling method: STZ was weighed and transferred to a centrifuge tube, wrapped with aluminum foil, kept away from light, and stored at −20° C. STZ sodium citrate solution is prepared when it is in need to use. The rats were fasted without water for 12 hours before injection. After weighing, the rats were injected with 55 mg/kg STZ intraperitoneally (STZ needs to be injected quickly, and the injection was completed within 10 minutes), and then returned to the cage to ensure that the rats had sufficient drinking water for 24 hours. Rats were injected with an equal volume of citrate buffer (pH 4.5). Four weeks after STZ injection, blood was collected from the tail vein, and the rats with blood glucose less than 16.7 mmol/L were eliminated; the taillick threshold temperature was increased, and the mechanical withdrawal threshold (MWT) was decreased, as the standard of a successful DPN model.
The animals were randomly divided into 3 groups (n=7), namely the normal control group, the model group, and the TBN (30 mg/kg) group. The normal group and the model group were injected with an equal volume of normal saline, and TBN was administered twice a day (fixed at 9:00-10:00 am and 3:00-4:00 pm), continuously for 4 weeks. […]

STZ-induced DKD rats [2] = assay: PAS staining, glomerular sclerosis index, STZ-induced DKD rats; format: in vivo, rat; conditions: all doses of TBN (10, 30, 60 mg/kg twice/day); Losartan 10 mg/kg once/day; 6 weeks; P<0.001 vs Vehicle
Procedure: (§1) Before the injection, the rats were fasted for 12 hours without water. After weighing, the rats were injected with 55 mg/kg STZ intraperitoneally (STZ needs to be injected quickly, and the injection was completed within 10 minutes), and then returned to the cage to ensure that the rats had sufficient drinking water for 24 hours. Rats were injected with an equal volume of citrate buffer (pH 4.5). After STZ injection for 3 weeks, blood was collected from the tail vein, and blood glucose ≥16.7 mmol/L was used as the criteria for the standard of the rats.
(§2) The route of administration is intragastric administration. TBN was administered twice a day (fixed at 9:00-10:00 am and 3:00-4:00 pm), and Losartan was administered once a day (fixed at 9:00-10:00 am) continuously for 6 weeks.
At the end of the experiment, kidney tissues were quickly separated, fixed with 4% paraformaldehyde and embedded in paraffin, serially sliced, 5 μm each, dried at 37° C. for 1 h, and then stained with PAS. The process is briefly as follows: paraffin sections are taken out of the 65° C. oven and immediately placed in xylene for deparaffinization and gradient alcohol rehydration, followed by periodic acid treatment for 5 min and Schiff treatment for 10 min, and then differentiation is performed with differentiation solution for 10 s. […]

STZ-induced DKD rats [3] = assay: Serum erythropoietin (ELISA) in STZ-induced DKD rats; format: in vivo, rat
Procedure: as §1, §2
At the end of the experiment, after rats were anesthetized, blood was taken from the abdominal aorta, allowed to stand for 1 hour, the supernatant was collected by centrifugation at 3000 rmp for 10 min. The serum erythropoietin level was measured according to the kit operating instructions. […] In the measurement, the blank hole was adjusted to zero, and the absorbance (OD value) of each hole was measured in sequence with a wavelength of 450 nm. […]

db/db mice [4] = assay: HE histopathology of kidney tissue in db/db mice; format: in vivo, mouse
Description: db/db mice are congenital obese type 2 DKD mice with spontaneous mutations in the leptin receptor (Leptin receptor, Lepr) due to a point mutation in the leptin receptor gene GT located on chromosome 4. The course of polyphagia, polyuria, diabetes and hyperglycemia is similar to that of humans, and it is currently the most widely used type 2 spontaneous animal model of DKD. The db/db mice have a series of complications with the aggravation of diabetes. The main pathological changes of renal tissue are the expansion of the glomerular mesangial interstitium, the thickening of the glomerular basement membrane, and the excessive accumulation of extracellular matrix. However, the glomerular mesangium of db/db mice changes relatively slowly, and the glomerular mesangium will not be dissolved or nodular glomerulosclerosis, and there is no progressive renal insufficiency.
Six-week-old db/db mice were purchased, and start the administration after adaptive feeding for 1 week (i.e., 7-week-old). TBN is administered twice a day (fixed by starting from 9:00-10:00 am and 3:00-4:00 pm, with an interval of 6 hours), and the positive control drug Losartan was administered once a day (fixed at 9:00-10:00 am) for 6 weeks.
The HE dyeing process is as shown in Example 9.

db/db mice [5] = assay: Urinary albumin/creatinine ratio in db/db mice, TBN alone and in combination; format: in vivo, mouse; conditions: TBN 30 mg/kg, Losartan 10 mg/kg, TBN+Losartan (FIG. 17)
Procedure: Grouping and dosing are the same as in Example 9. At the end of the experiment, 24 h urine samples were collected, antiseptic treatment was performed to all urine specimens with toluene, 24 h urine was centrifuged to remove precipitation and placed in a 1.5 mLEP tube and then placed in a refrigerator at −20° C. for later use, urinary albumin content was measured with ELISA kits, urine creatinine levels were detected by use of an automatic biochemical analyzer, and the ratio of both was calculated. The results as shown in FIG. 19 indicate that the ratio of urinary microalbumin to creatinine in DB/DB group was higher than that in wt/wt group, and the db/db mice 24 h urinary albumin creatinine ratio decreased in TBN group, losartan group and TBN-losartan combination group. Referring to this method, metformin (150 mg/kg, qd), and HIF-PH inhibitor roxadustat (10 mg/kg, once 2 every days) were given via oral administration, the combination groups of TBN with respectively metformin and roxadustat also reduce 24 h urinary albumin creatinine ratio.

STZ-induced SHR rats = assay: Serum EPO content in STZ-induced SHR rats; format: in vivo, rat; conditions: TBN group (T60), 60 mg/kg

Cc1nc(C)c(/C=[N+](\[O-])C(C)(C)C)nc1C [TBN]
pain threshold of heat stimulation (hindlimb lifting latency) vs model group [1]: increase
glomerular sclerosis index (STZ-induced DKD rats [2]): significantly reduce
serum EPO content (STZ-induced DKD rats [3]; 30 mg/kg and 60 mg/kg, P<0.05): increased EPO content with significant statistical difference
serum EPO content (STZ-induced DKD rats [3]; TBN dose groups (10, 30, 60 mg/kg) vs vehicle, to varying degrees): increased
degree of infiltration of kidney inflammatory cells vs db/db group (db/db mice [4]; 30 mg/kg and 60 mg/kg dose groups): obviously improved
pathological structure of kidney injury (H&E) (db/db mice [4]; TBN dose groups (10, 30, 60 mg/kg), in various degrees): improvement
glomerular area (glomerular surface) (db/db mice [4]; TBN treatment groups, dose-dependent, more significantly for 30 mg/kg and 60 mg/kg): reduced
24 h urinary albumin creatinine ratio (db/db mice [5]): decreased
content of EPO in serum vs model group (STZ-induced SHR rats): significantly increased
